According to article PMC6118387, “In silico drug absorption tract: An agent-based biomimetic model for human oral drug absorption” (PLoS ONE, 2018):
Several values for one entry are separate records, joined by “and”; a condition that tells them apart may be missing. Equal entries are not always repeated. Where two headings read alike, the source gives them in different places.

Experiments:
[1] = clonazepam, literature referent value, cited from earlier work
[2] = Clinical bioequivalence study: plasma concentrations (LC-MS-MS) and noncompartmental PK after oral tablet; assay type: in vivo, human; details: for Concentration, individual subjects / concentration at 0 h / concentration at 0.5 h / concentration at 1 h / concentration at 1.5 h / concentration at 2 h / concentration at 3 h / concentration at 4 h / concentration at 6 h / concentration at 8 h / concentration at 10 h / concentration at 12 h / concentration at 24 h / concentration at 48 h / concentration at 72 h / concentration at 96 h: clonazepam 2 mg oral; for concentration at 0 h / concentration at 0.5 h / concentration at 1 h / concentration at 1.5 h / concentration at 2 h / concentration at 3 h / concentration at 4 h / concentration at 6 h / concentration at 8 h / concentration at 10 h / concentration at 12 h / concentration at 24 h / concentration at 48 h / concentration at 72 h / concentration at 96 h: po
[3] = model drug parameter fixed to literature reported value, cited from earlier work
[4] = Referent clinical, clonazepam 2 mg tablet oral, N = 14, mean ±1 SD
[5] = human, plasma, 2 mg, plasma, MEAN column of the sheet with 15 subject columns, read-out: Concentration, MEAN of raw data sheet
[6] = human, plasma, 2 mg, plasma, mean ±1 SD N=14, read-out: Concentration, Referent
[7] = human, plasma, 2 mg, plasma, one value per subject (A1-A6, A8, B1-B8; B5 consumed alcohol), read-out: Concentration, individual subjects
[8] = human, plasma, Referent clinical, clonazepam 2 mg tablet oral, N = 14, mean ±1 SD

O=C1CN=C(c2ccccc2Cl)c2cc([N+](=O)[O-])ccc2N1 [Clonazepam, clonazepam]
F (absolute oral bioavailability) [1]: ≥ 90%
Fa × Fg [1]: 93–95%
Fh [1]: 95–97%
Fa × Fg ([1]; listed as clonazepam): 93–95%
Fh ([1]; listed as clonazepam): 95–97%
CL/F [2, 4]: 3.88 ± 0.68 L/h
V/F [2, 4]: 186.84 ± 25.25 L
Concentration, individual subjects ([2]; plasma, 4 h, one value per subject (A1-A6, A8, B1-B8; B5 consumed alcohol)): 12.61 ng/mL and 14.34 ng/mL and 8.84 ng/mL and 12.65 ng/mL and 11.84 ng/mL and 14.63 ng/mL and 14.50 ng/mL and 12.96 ng/mL and 13.82 ng/mL and 11.06 ng/mL and 13.21 ng/mL and 17.02 ng/mL and 10.16 ng/mL and 10.55 ng/mL
Concentration, individual subjects ([2]; plasma, 6 h, one value per subject (A1-A6, A8, B1-B8; B5 consumed alcohol)): 10.50 ng/mL and 9.64 ng/mL and 15.51 ng/mL and 7.70 ng/mL and 10.12 ng/mL and 10.42 ng/mL and 11.00 ng/mL and 12.04 ng/mL and 12.42 ng/mL and 11.68 ng/mL and 12.48 ng/mL and 8.95 ng/mL and 12.72 ng/mL and 9.18 ng/mL and 8.60 ng/mL
Concentration, individual subjects ([2]; plasma, 8 h, one value per subject (A1-A6, A8, B1-B8; B5 consumed alcohol)): 8.58 ng/mL and 9.87 ng/mL and 7.12 ng/mL and 7.80 ng/mL and 8.38 ng/mL and 11.29 ng/mL and 11.40 ng/mL and 10.91 ng/mL and 10.98 ng/mL and 11.71 ng/mL and 8.16 ng/mL and 11.31 ng/mL and 8.88 ng/mL and 8.34 ng/mL
Concentration, individual subjects ([2]; plasma, 10 h, one value per subject (A1-A6, A8, B1-B8; B5 consumed alcohol)): 8.87 ng/mL and 11.42 ng/mL and 6.58 ng/mL and 7.89 ng/mL and 9.42 ng/mL and 8.97 ng/mL and 9.96 ng/mL and 11.87 ng/mL and 8.66 ng/mL and 9.83 ng/mL and 8.47 ng/mL and 9.69 ng/mL and 7.40 ng/mL and 7.44 ng/mL
Concentration, individual subjects ([2]; plasma, 12 h, one value per subject (A1-A6, A8, B1-B8; B5 consumed alcohol)): 8.09 ng/mL and 8.83 ng/mL and 6.28 ng/mL and 6.29 ng/mL and 8.86 ng/mL and 7.97 ng/mL and 9.45 ng/mL and 11.04 ng/mL and 8.02 ng/mL and 9.77 ng/mL and 7.69 ng/mL and 8.43 ng/mL and 7.52 ng/mL and 6.76 ng/mL
Concentration, individual subjects ([2]; plasma, 24 h, one value per subject (A1-A6, A8, B1-B8; B5 consumed alcohol)): 7.01 ng/mL and 7.87 ng/mL and 5.83 ng/mL and 6.96 ng/mL and 7.45 ng/mL and 7.77 ng/mL and 8.74 ng/mL and 8.99 ng/mL and 7.52 ng/mL and 8.66 ng/mL and 7.57 ng/mL and 8.32 ng/mL and 5.43 ng/mL and 6.77 ng/mL
Concentration, individual subjects ([2]; plasma, 48 h, one value per subject (A1-A6, A8, B1-B8; B5 consumed alcohol)): 4.72 ng/mL and 5.20 ng/mL and 6.30 ng/mL and 3.61 ng/mL and 5.16 ng/mL and 4.16 ng/mL and 6.22 ng/mL and 4.74 ng/mL and 6.11 ng/mL and 5.31 ng/mL and 5.10 ng/mL and 5.12 ng/mL and 5.25 ng/mL and 4.06 ng/mL and 3.12 ng/mL
Cmax ([2]; human, plasma, oral, 2 mg, clonazepam, peak of the mean clinical concentration-time profile over 96 hours): 13.5 ng/mL
concentration at 0 h [2, 5]: 0 ng/mL
concentration at 0 h [2, 6]: 0 ng/mL
concentration at 0 h [2, 7]: 0 ng/mL
concentration at 0.5 h [2, 5]: 6.65 ng/mL
concentration at 0.5 h [2, 6]: 7.13 ± 7.06 ng/mL
concentration at 1 h [2, 5]: 13 ng/mL
concentration at 1 h [2, 6]: 13.4 ± 5.29 ng/mL
concentration at 1.5 h [2, 5]: 13.5 ng/mL
concentration at 1.5 h [2, 6]: 13.9 ± 3.71 ng/mL
concentration at 2 h [2, 5]: 13.1 ng/mL
concentration at 2 h [2, 6]: 13.3 ± 2.82 ng/mL
concentration at 2 h [2, 7]: 13.7 ng/mL
concentration at 3 h [2, 5]: 12.7 ng/mL
concentration at 3 h [2, 6]: 12.9 ± 2.36 ng/mL
concentration at 3 h [2, 7]: 12.5 ng/mL
concentration at 4 h ([2]; human, plasma, 2 mg, plasma, 4 h, MEAN column of the sheet with 15 subject columns, read-out: Concentration, MEAN of raw data sheet): 12.7 ng/mL
concentration at 4 h ([2]; human, plasma, 2 mg, plasma, 4 h, mean ±1 SD N=14, read-out: Concentration, Referent): 13 ± 1.82 ng/mL
concentration at 4 h ([2]; human, plasma, 2 mg, plasma, 4 h, one value per subject (A1-A6, A8, B1-B8; B5 consumed alcohol), read-out: Concentration, individual subjects): 12.7 ng/mL
concentration at 6 h ([2]; human, plasma, 2 mg, plasma, 6 h, MEAN column of the sheet with 15 subject columns, read-out: Concentration, MEAN of raw data sheet): 10.9 ng/mL
concentration at 6 h ([2]; human, plasma, 2 mg, plasma, 6 h, mean ±1 SD N=14, read-out: Concentration, Referent): 11.1 ± 1.87 ng/mL
concentration at 8 h ([2]; human, plasma, 2 mg, plasma, 8 h, MEAN column of the sheet with 15 subject columns, read-out: Concentration, MEAN of raw data sheet): 9.62 ng/mL
concentration at 8 h ([2]; human, plasma, 2 mg, plasma, 8 h, mean ±1 SD N=14, read-out: Concentration, Referent): 9.8 ± 1.43 ng/mL
concentration at 8 h ([2]; human, plasma, 2 mg, plasma, 8 h, one value per subject (A1-A6, A8, B1-B8; B5 consumed alcohol), read-out: Concentration, individual subjects): 9.63 ng/mL
concentration at 10 h ([2]; human, plasma, 2 mg, plasma, 10 h, MEAN column of the sheet with 15 subject columns, read-out: Concentration, MEAN of raw data sheet): 9.05 ng/mL
concentration at 10 h ([2]; human, plasma, 2 mg, plasma, 10 h, mean ±1 SD N=14, read-out: Concentration, Referent): 9.23 ± 1.31 ng/mL
concentration at 10 h ([2]; human, plasma, 2 mg, plasma, 10 h, one value per subject (A1-A6, A8, B1-B8; B5 consumed alcohol), read-out: Concentration, individual subjects): 9.31 ng/mL
concentration at 12 h ([2]; human, plasma, 2 mg, plasma, 12 h, MEAN column of the sheet with 15 subject columns, read-out: Concentration, MEAN of raw data sheet): 8.25 ng/mL
concentration at 12 h ([2]; human, plasma, 2 mg, plasma, 12 h, mean ±1 SD N=14, read-out: Concentration, Referent): 8.39 ± 1.22 ng/mL
concentration at 12 h ([2]; human, plasma, 2 mg, plasma, 12 h, one value per subject (A1-A6, A8, B1-B8; B5 consumed alcohol), read-out: Concentration, individual subjects): 8.78 ng/mL
concentration at 24 h ([2]; human, plasma, 2 mg, plasma, 24 h, MEAN column of the sheet with 15 subject columns, read-out: Concentration, MEAN of raw data sheet): 7.53 ng/mL
concentration at 24 h ([2]; human, plasma, 2 mg, plasma, 24 h, mean ±1 SD N=14, read-out: Concentration, Referent): 7.65 ± 0.93 ng/mL
concentration at 24 h ([2]; human, plasma, 2 mg, plasma, 24 h, one value per subject (A1-A6, A8, B1-B8; B5 consumed alcohol), read-out: Concentration, individual subjects): 8.02 ng/mL
concentration at 48 h ([2]; human, plasma, 2 mg, plasma, 48 h, MEAN column of the sheet with 15 subject columns, read-out: Concentration, MEAN of raw data sheet): 4.95 ng/mL
concentration at 48 h ([2]; human, plasma, 2 mg, plasma, 48 h, mean ±1 SD N=14, read-out: Concentration, Referent): 5.04 ± 0.87 ng/mL
concentration at 72 h [2, 5]: 3.13 ng/mL
concentration at 72 h [2, 6]: 3.22 ± 0.71 ng/mL
concentration at 96 h [2, 5]: 1.89 ng/mL
concentration at 96 h [2, 6]: 1.95 ± 0.58 ng/mL
AUC [2, 8]: 529 ± 80.8 ng·h/mL
Cmax [2, 8]: 16.2 ± 4.28 ng/mL
half-life [2, 8]: 49 ± 7.79 h
k el [2, 8]: 5.83e-06 s⁻¹
Tmax ([2]; human, plasma, Referent clinical, clonazepam 2 mg tablet oral, N = 14, median, read-out: Tmax): 1.5 h
Pka, In silico acid/base equilibrium constant ([3]; first printed value): 1.86
Pka, In silico acid/base equilibrium constant ([3]; second printed value): 11.89
